15 compounds from ChEMBL document CHEMBL5584216, “Expanded library of novel 2,3-pyrrolidinedione analogues exhibit anti-biofilm activity” (2024) can be followed below.

By MIC is commonly meant the smallest concentration in the dilution series that meets the test's criterion for growth inhibition.

Common to all, as to format: functional
The subject of assay [1] is Staphylococcus aureus. In words: Antimicrobial activity against methicillin-resistant Staphylococcus aureus ATCC 33591 assessed as reduction in microbial growth.
Assay [2] has as its system Staphylococcus aureus. Put plainly: Antimicrobial activity against methicillin-sensitive Staphylococcus aureus ATCC 25923 assessed as reduction in microbial growth at pH 9.0.
In assay [3] the test system is Staphylococcus aureus. In words: Antibiofilm activity against methicillin-resistant Staphylococcus aureus ATCC BAA-44 at 40 uM relative to control.
In assay [4] the test system is Staphylococcus aureus. Put plainly: Antibiofilm activity against methicillin-sensitive Staphylococcus aureus ATCC 25923 assessed as biofilm eradication at pH 9.0.
The subject of assay [5] is Staphylococcus aureus. In words: Antibiofilm activity against methicillin-resistant Staphylococcus aureus ATCC BAA-44 at 5 uM relative to control.

Turning to `CCC1C(c2ccc(C(F)(F)F)cc2)=C(O)C(=O)N1CCC(C)C` (stereo not given), the MIC in the assay with Staphylococcus aureus [1] is more than 128 µg/mL; in the assay on Staphylococcus aureus [2], 64 µg/mL. In addition, the Activity in the assay on Staphylococcus aureus [3] amounted to 43%; in the assay on Staphylococcus aureus [5], 47%. Further, the MBEC in the assay on Staphylococcus aureus [4] is more than 512 µg/mL.

Turning to `CCC1C(c2ccc(C(F)(F)F)cc2)=C(O)C(=O)N1CCc1ccccc1` (stereo not given), the results for the MIC in the assay on Staphylococcus aureus [1] and with Staphylococcus aureus [2] were more than 128 µg/mL and 64 µg/mL, respectively. The Activity with Staphylococcus aureus [3] came to 45%; in the assay with Staphylococcus aureus [5], 23%. Besides, the MBEC in the assay with Staphylococcus aureus [4] was determined as 256 µg/mL.

As to `O=C1C(O)=C(c2ccc(C(F)(F)F)cc2)CN1c1ccccc1`, the MIC with Staphylococcus aureus [1] was more than 128 µg/mL; in the assay on Staphylococcus aureus [2] it was more than 256 µg/mL. In addition, the Activity was found to be 8% with Staphylococcus aureus [3] and 26% in the assay on Staphylococcus aureus [5]. The MBEC in the assay on Staphylococcus aureus [4] is 512 µg/mL.

On to `CCC1C(c2ccc(C(F)(F)F)cc2)=C(O)C(=O)N1c1ccccn1` (stereo not given), for which the MIC was more than 128 µg/mL in the assay on Staphylococcus aureus [1] and 32 µg/mL in the assay on Staphylococcus aureus [2]. The values for the Activity in the assay on Staphylococcus aureus [3] and in the assay on Staphylococcus aureus [5] were 31% and 4%, respectively. The MBEC with Staphylococcus aureus [4] turned out to be 128 µg/mL.

`CCC1C(c2ccc(C(F)(F)F)cc2)=C(O)C(=O)N1c1ccccc1` (stereo not given): the MIC in the assay with Staphylococcus aureus [1] and with Staphylococcus aureus [2] was 16 µg/mL each time. For the same compound, the Activity came to 85% in the assay with Staphylococcus aureus [3] and 5% in the assay with Staphylococcus aureus [5]. Besides, the MBEC in the assay with Staphylococcus aureus [4] turned out to be 128 µg/mL.

Turning to `CCCCCCCN1C(=O)C(O)=C(c2ccc(C(F)(F)F)cc2)C1CC` (stereo not given), the minimal inhibitory concentration (MIC) worked out at 64 µg/mL in the assay on Staphylococcus aureus [1] and 32 µg/mL with Staphylococcus aureus [2]. Further, the Activity came to 59% in the assay on Staphylococcus aureus [3] and 64% in the assay on Staphylococcus aureus [5]. In addition, the MBEC in the assay on Staphylococcus aureus [4] was more than 512 µg/mL.

In the case of `CCCCCN1C(=O)C(O)=C(c2ccc(C(F)(F)F)cc2)C1CC` (stereo not given), the values for the minimum inhibitory concentration (MIC) in the assay with Staphylococcus aureus [1] and with Staphylococcus aureus [2] were 16 µg/mL and 32 µg/mL, respectively. The Activity in the assay on Staphylococcus aureus [3] turned out to be 63%; in the assay on Staphylococcus aureus [5], 58%. In the assay on Staphylococcus aureus [4], the MBEC is 256 µg/mL.

On to `CC(C)C1C(c2ccc(C(F)(F)F)cc2)=C(O)C(=O)N1c1ccccc1` (stereo not given), for which the minimal inhibitory concentration (MIC) in the assay on Staphylococcus aureus [1] is more than 128 µg/mL; in the assay with Staphylococcus aureus [2], 16 µg/mL. Moreover, the figures for the Activity with Staphylococcus aureus [3] and in the assay with Staphylococcus aureus [5] were 3% and -5%, respectively. Also, in the assay on Staphylococcus aureus [4], the MBEC worked out at 512 µg/mL.

`CCC1C(c2ccc(C(F)(F)F)cc2)=C(O)C(=O)N1Cc1cccs1` (stereo not given): the MIC in the assay on Staphylococcus aureus [1] was more than 128 µg/mL; with Staphylococcus aureus [2] it was 32 µg/mL. Moreover, the Activity is on record as 79% with Staphylococcus aureus [3] and 54% in the assay on Staphylococcus aureus [5]. Also, the MBEC in the assay with Staphylococcus aureus [4] was 128 µg/mL.

Regarding `CCC1C(c2ccc(C(F)(F)F)cc2)=C(O)C(=O)N1Cc1ccc(OC)cc1OC` (stereo not given), the MIC is more than 128 µg/mL in the assay with Staphylococcus aureus [1] and more than 256 µg/mL in the assay on Staphylococcus aureus [2]. Besides, the Activity is listed as 57% with Staphylococcus aureus [3] and 63% with Staphylococcus aureus [5]. Further, the MBEC in the assay with Staphylococcus aureus [4] is more than 512 µg/mL.

Regarding `CCC1C(c2ccc(C(F)(F)F)cc2)=C(O)C(=O)N1c1ccc(Br)cc1` (stereo not given), the MIC in the assay on Staphylococcus aureus [1] and in the assay with Staphylococcus aureus [2] was 32 µg/mL throughout. Besides, the Activity was found to be 72% in the assay with Staphylococcus aureus [3] and 34% with Staphylococcus aureus [5]. Also, in the assay with Staphylococcus aureus [4], the MBEC was determined as 128 µg/mL.

With `CCC1C(c2ccc(C(F)(F)F)cc2)=C(O)C(=O)N1c1ccc(OC)c(OC)c1` (stereo not given), the MIC in the assay with Staphylococcus aureus [1] is more than 128 µg/mL; in the assay with Staphylococcus aureus [2], 64 µg/mL. Also, the Activity was 70% with Staphylococcus aureus [3] and 17% in the assay with Staphylococcus aureus [5]. Besides, the MBEC in the assay on Staphylococcus aureus [4] was more than 512 µg/mL.

As for `CC1C(c2ccc(C(F)(F)F)cc2)=C(O)C(=O)N1c1ccccc1` (stereo not given), the MIC in the assay on Staphylococcus aureus [1] was 32 µg/mL; in the assay with Staphylococcus aureus [2], 16 µg/mL. Besides, the Activity with Staphylococcus aureus [3] is listed as 72%; with Staphylococcus aureus [5] it was -26%. Besides, the MBEC in the assay with Staphylococcus aureus [4] is 256 µg/mL.

As for `CCCCCCN1C(=O)C(O)=C(c2ccc(C(F)(F)F)cc2)C1CC` (stereo not given), the results for the MIC in the assay with Staphylococcus aureus [1] and in the assay on Staphylococcus aureus [2] were 16 µg/mL and 32 µg/mL, respectively. The Activity in the assay with Staphylococcus aureus [3] is recorded as 85%; in the assay on Staphylococcus aureus [5], 59%. In addition, the MBEC in the assay with Staphylococcus aureus [4] was 512 µg/mL.

With `CCC1C(c2ccc(C(F)(F)F)cc2)=C(O)C(=O)N1c1ccc(F)cc1` (stereo not given), the MIC in the assay with Staphylococcus aureus [1] and in the assay with Staphylococcus aureus [2] was 16 µg/mL in each case. Further, the Activity with Staphylococcus aureus [3] is given as 81%; in the assay on Staphylococcus aureus [5] it was 22%. Also, the MBEC in the assay on Staphylococcus aureus [4] was determined as 128 µg/mL.
